# Literature values as cited in US20050065219A1, “Treatment of demyelinating conditions” (priority 2003, published 2005).
# Columns and labels:
# [1] = rats (Keilhoff et al. 1992)
# [2] = test system: nicotinic acetylcholine receptors; conditions: Masou et al. 1986
# NMDA receptor channel = NMDA receptor channel (Homo sapiens, UniProt Q05586); conditions: Bormann 1989
# [3] = target: PCP and MK-801 binding sites of the NMDA receptor (Homo sapiens, UniProt Q05586); conditions: postmortem human frontal cortex, at therapeutic concentrations (Kornhuber et al. 1989)
# [4] = target: brain membranes ([3H]dizocilpine site) (Homo sapiens, UniProt Q05586); conditions: Chen et al. 1992
# [5] = clinical use for many years (Kornhuber et al. 1994)
# [6] = test system: cortical and retinal neuron cultures; conditions: cortical and retinal neuron cultures (Deyer et al. 1990)
# [7] = test system: 5-hydroxytryptamine 5-HT3 receptors; conditions: Reiser et al. 1988
structure (smiles),measurement,setting,value
"CC12CC3CC(C)(C1)CC(N)(C3)C2 [memantine, 1-amino-3,5-dimethyladamantane]",quinolic acid-induced hippocampal damage,[1],prevents
same,block of nicotinic acetylcholine receptors,[2],blocks
same,antagonism of the NMDA receptor channel,NMDA receptor channel,micromolar antagonist
same,binding to PCP and MK-801 binding sites of the NMDA receptor,[3],binds
same,[3H]dizocilpine binding to brain membranes,[4],inhibits
same,tolerability in clinical use,[5],well tolerated
same,"protection from toxicity of glutamate, NMDA and HIV-1 coat protein gp120",[6],protects
same,block of 5-HT3 receptors,[7],blocks
